{"source": "the NIST ThermoML archive (doi:10.1016/j.fluid.2015.10.027)", "conditions": "101.33 kPa, Liquid, Vibrating tube method", "note": "± gives the expanded uncertainty stated by the source.", "data": [{"smiles": "CC1CCCC(C)N1", "note": "(stereo not given) [2,6-dimethylpiperidine]", "values": [{"measurement": "mass density", "setting": "300.83 K", "result": "816.664 ± 0.24", "unit": "kg/m3"}, {"measurement": "mass density", "setting": "304.05 K", "result": "813.975 ± 0.24", "unit": "kg/m3"}, {"measurement": "mass density", "setting": "306.72 K", "result": "811.615 ± 0.24", "unit": "kg/m3"}, {"measurement": "mass density", "setting": "309.8 K", "result": "809.031 ± 0.24", "unit": "kg/m3"}, {"measurement": "mass density", "setting": "313.97 K", "result": "805.478 ± 0.24", "unit": "kg/m3"}]}]}
